{"source": "patent US20170340544A1", "about": "“COSMETIC COMPOSITION FOR IMPROVING HEALTH OF SCALP AND METHOD OF PREPARING THE SAME” (OLIPASS Cosmeceuticals Company, priority 2016, published 2017)", "key": {"HaCaT cell line": {"system": "HaCaT cell line", "experiment": "Cytotoxicity (MTT) of oligopeptide in HaCaT human keratinocytes", "type": "cell-based", "details": "50 ppm and 100 ppm oligopeptide", "experimental": "(§1) In order to evaluate the stability of the oligopeptide prepared in Preparation Example 1 when applied to humans, irritation of the skin and scalp due to cytotoxicity was measured using a HaCaT cell line as human keratinocytes.\n(§2) The HaCaT cell line used therefor was incubated at 37° C. in a […] incubator. When the extent of incubation arrived at 85 to 90% of the area of a culture vessel, the cells were detached with trypsin, counted, and subjected to subculture at 5×10^3 cells/cm^2.\n(§3) For cell culture, a Dulbecco's Modified Eagle Medium (DMEM, GIBCO, Cat. No. 11995-065, USA), containing 10% fetal bovine serum (FBS, GIBCO, Cat. No., 26140-079, USA), 100 U/ml penicillin, and 100 μg/ml streptomycin, was used. For subculture, a 75 T-flask (NUNC, Cat. No. 156499, Denmark) was used, and the cytotoxicity test was carried out using a 24-well plate (NUNC, Cat. No. 142475, Denmark).\n(§4) The human keratinocytes were counted at 5×10^3 cells/well each and then aliquoted into the 24-well plate using a hemocytometer. These cells were incubated in DMEM containing 10% FBS for 48 hr. When the extent of incubation arrived at 40 to 50% of the surface area of the culture vessel, the medium was replaced with FBS-free DMEM containing each of 50 ppm oligopeptide and 100 ppm oligopeptide, and culture was further conducted for 24 hr. Thereafter, 50 μl of a 3-(4,5-dimethylthiazol-2-yl)-2,5-diphenyl tetrazolium bromide (MTT, Sigma M5655, USA) solution (2.5 mg/ml) was added and culture was further performed for 3 hr. Then, the cell culture broth was discarded, 200 μl of dimethyl sulfoxide (DMSO, Sigma D2650, USA) was added to each well and shaken, 100 μl thereof was transferred into a 96-well plate, and the absorbance thereof was measured at 570 nm using an Enzyme-Linked Immunosorbent Assay (ELISA).\n(§5) The cytotoxicity was represented as a percentage based on the absorbance intensity of a control using pure water."}, "[1]": {"experiment": "Cytotoxicity (MTT) of oligopeptide in HaCaT human keratinocytes", "type": "cell-based", "details": "24 hr, MTT absorbance 570 nm as percentage of pure water control", "experimental": "as §1, §2, §3, §4, §5"}}, "note": "Ends that are not written are not given here."}
{"substance": "GQQKRSDRLNLSR-OH [Oligopeptide, Gly-Gln-Gln-Lys-Arg-Ser-Asp-Arg-Leu-Asn-Leu-Ser-Arg]", "values": [{"measurement": "cytotoxicity compared to the control", "setting": "HaCaT cell line", "result": "no cytotoxicity"}, {"measurement": "viability", "setting": "[1]; 50 ppm oligopeptide", "result": 93, "unit": "%"}, {"measurement": "viability", "setting": "[1]; 100 ppm oligopeptide", "result": 81, "unit": "%"}]}
